The source of these data is patent publication US10828316B2, “Method of treating bacterial infections” (priority 2016, dated 2020).

Test in all cases: MIC
The test system of one assay is S. aureus strain no 13. The note with it: S. aureus strain 13, trimethoprim 2 μg/ml.
In another assay the test system is E. coli EN0001. The class given is cell-based. The note with it: in didanosine+trimethoprim+uridine combination.
A further assay deals with P. aeruginosa EN015. The class given is cell-based, Pseudomonas aeruginosa. The note with it: Pseudomonas aeruginosa.
Another assay deals with A. baumannii EN0007. In kind it is cell-based, A. baumanii. The note with it: in didanosine+trimethoprim+uridine combination.
For another assay, the system named is E. coli EN001. The class given is cell-based, Escherichia coli.
For another assay, the system named is E. coli strain no 2. The note with it: Escherichia coli, NO2, read-out: MIC Didanosine, E. coli strain 2.
The subject of a further assay is K. pneumoniae EN011. In kind it is cell-based, Klebsiella pneumoniae. The conditions noted are these: Klebsiella pneumoniae.
In a further assay the test system is E. coli EN013. The class given is cell-based, Escherichia coli. The note with it: Escherichia coli.
The next assay has as its system P. aeruginosa EN0004. The class given is cell-based. The note with it: in didanosine+trimethoprim+uridine combination.
The subject of a further assay is K. pneumoniae EN0006. In kind it is cell-based. The conditions noted are these: in didanosine+trimethoprim+uridine combination.
The test system of the next assay is E. coli EN003. The class given is cell-based, Escherichia coli. The note with it: Escherichia coli, Combination 2, read-out: MIC, thymidine concentration.
A further assay deals with S. marescens EN0454. The class given is cell-based, Serratia marescens. The conditions noted are these: Serratia, Combination 2, read-out: MIC, thymidine concentration.
Another assay relates to P. aeruginosa EN004. The class given is cell-based, Pseudomonas aeruginosa. The note with it: Pseudomonas aeruginosa, Combination 2, read-out: MIC, thymidine concentration.
The next assay has as its system P. aeruginosa EN0459. In kind it is cell-based, Pseudomonas aeruginosa. The conditions noted are these: Pseudomonas aeruginosa, Combination 2, read-out: MIC, thymidine concentration.
A further assay relates to P. mirabilis EN0457. In kind it is cell-based, Proteus mirabilis. The conditions noted are these: Proteus mirabilis, Combination 2, read-out: MIC, thymidine concentration.
The next assay relates to A. baumannii EN007. The class given is cell-based, Acinetobacter baumannii. The conditions noted are these: Acinetobacter baumannii, Combination 2, read-out: MIC, thymidine concentration.
The next assay deals with K. pneumoniae EN006. The class given is cell-based, Klebsiella pneumoniae. The note with it: Klebsiella pneumoniae, Combination 2, read-out: MIC, thymidine concentration.
The test system of a further assay is P. aeruginosa EN005. In kind it is cell-based, Pseudomonas aeruginosa. The conditions noted are these: Pseudomonas aeruginosa, Combination 2, read-out: MIC, thymidine concentration.
The test system of another assay is S. epidermidis EN0456. In kind it is cell-based, Staphylococcus epidermidis. The note with it: Staphylococcus epidermidis, Combination 2, read-out: MIC, thymidine concentration.
The test system of another assay is E. coli EN002. The class given is cell-based, Escherichia coli. The note with it: Escherichia coli, Combination 2, read-out: MIC, thymidine concentration.
A further assay concerns P. mirabilis ST19 EN0445. The class given is cell-based, Proteus mirabilis. The note with it: Proteus mirabilis, ST19EN0445, Combination 2, read-out: MIC, thymidine concentration.
A further assay has as its system Citrobacter sp. EN0465. In kind it is cell-based. The conditions noted are these: Combination 2, read-out: MIC, thymidine concentration.
The test system of assay [1] is A. pittii or A. nosocomialis EN0180. The class given is cell-based, Acinetobacter pittii or nosocomialis. The conditions noted are these: Combination 2, read-out: MIC, thymidine concentration.
A further assay has as its system P. aeruginosa EN0460. The class given is cell-based, Pseudomonas aeruginosa. The conditions noted are these: Pseudomonas aeruginosa, Combination 2, read-out: MIC, thymidine concentration.
In the next assay the test system is K. oxytoca EN0392. In kind it is cell-based, Klebsiella oxytoca. The conditions noted are these: Klebsiella oxytoca, Combination 2, read-out: MIC, thymidine concentration.
A further assay has as its system E. aerogenes EN0461. In kind it is cell-based, Enterobacter aerogenes. The note with it: Klebsiella aerogenes, Combination 2, read-out: MIC, thymidine concentration.
A further assay concerns E. coli B EN0458. The class given is cell-based, Escherichia coli B. The conditions noted are these: Escherichia coli, BEN0458, Combination 2, read-out: MIC, thymidine concentration.
For another assay, the system named is E. coli EN012. The class given is cell-based, Escherichia coli. The conditions noted are these: Escherichia coli, Combination 2, read-out: MIC, thymidine concentration.
Another assay concerns P. aeruginosa EN0422. In kind it is cell-based, Pseudomonas aeruginosa. The note with it: Pseudomonas aeruginosa, Combination 2, read-out: MIC, thymidine concentration.
The test system of the next assay is K. pneumoniae EN010. In kind it is cell-based, Klebsiella pneumoniae. The note with it: Klebsiella pneumoniae, Combination 2, read-out: MIC, thymidine concentration.
A further assay relates to S. aureus EN008. In kind it is cell-based, Staphylococcus aureus. The note with it: Staphylococcus aureus, Combination 2, read-out: MIC, thymidine concentration.
For a further assay, the system named is A. baumannii EN016. The class given is cell-based, Acinetobacter baumannii. The note with it: Acinetobacter baumannii, Combination 2, read-out: MIC, thymidine concentration.
The test system of a further assay is P. aeruginosa EN014. In kind it is cell-based, Pseudomonas aeruginosa. The note with it: Pseudomonas aeruginosa, Combination 2, read-out: MIC, thymidine concentration.
The next assay relates to K. pneumoniae EN0463. The class given is cell-based, Klebsiella pneumoniae. The conditions noted are these: Klebsiella pneumoniae, Combination 2, read-out: MIC, thymidine concentration.
The next assay has as its system A. baumannii EN017. In kind it is cell-based, Acinetobacter baumannii. The conditions noted are these: Acinetobacter baumannii; A. baumannii EN017; Combination 2; read-out: MIC, thymidine concentration.
A further assay relates to S. typhimurium EN0466. The class given is cell-based, Salmonella typhimurium. The note with it: Salmonella enterica, Combination 2, read-out: MIC, thymidine concentration.
A further assay relates to M. luteus EN0455. The class given is cell-based, Micrococcus luteus. The note with it: Micrococcus luteus, Combination 2, read-out: MIC, thymidine concentration.

Where two headings read alike, the source gives them in different places. Bounds are passed on as bounds.

Consider `O=c1[nH]c(=O)n([C@H]2C[C@H](O)[C@@H](CO)O2)cc1Br` [BrdUrd], for which the “MIC BrdUrd” value against S. aureus strain no 13 (uridine 10 μg/ml) and in the assay with S. aureus strain no 13 (uridine 100 μg/ml) was ≤2 µg/mL throughout.
`O=c1[nH]cnc2c1ncn2[C@H]1CC[C@@H](CO)O1` [Didanosine, didanosine]: the MIC with E. coli EN0001 is 0.25 µg/mL; with P. aeruginosa EN015 (EN015, P. aeruginosa EN015, in didanosine+trimethoprim+uridine combination) it was 1 µg/mL; in the assay on A. baumannii EN0007, >4 µg/mL; in the assay on E. coli EN001 (in didanosine+trimethoprim+uridine combination) it was 0.125 µg/mL; with E. coli strain no 2 (trimethoprim 0, uridine 0 μg/ml) it was > 30 µg/mL; in the assay with E. coli strain no 2 (trimethoprim 0, uridine 10 μg/ml) it was > 30 µg/mL. Further, the MIC was > 30 µg/mL in the assay with E. coli strain no 2 (trimethoprim 0, uridine 100 μg/ml); > 2.5 µg/mL with E. coli strain no 2 (trimethoprim 1 μg/ml, uridine 0 μg/ml); > 2.5 µg/mL in the assay on E. coli strain no 2 (trimethoprim 1 μg/ml, uridine 10 μg/ml); > 2.5 µg/mL with E. coli strain no 2 (trimethoprim 2 μg/ml, uridine 0 μg/ml); > 2.5 µg/mL with E. coli strain no 2 (trimethoprim 2 μg/ml, uridine 10 μg/ml); 0.125 µg/mL with K. pneumoniae EN011 (EN011, K. pneumoniae EN011, in didanosine+trimethoprim+uridine combination). For the same molecule, the MIC is 0.016 µg/mL in the assay on E. coli EN013 (EN013, E. coli EN013, in didanosine+trimethoprim+uridine combination); >4 µg/mL in the assay with P. aeruginosa EN0004; 0.5 µg/mL in the assay on K. pneumoniae EN0006.
Consider `Cc1cn([C@H]2C[C@H](O)[C@@H](CO)O2)c(=O)[nH]c1=O` [Thymidine, thymidine], for which the MIC with E. coli EN003 was < 0.2 µM; with S. marescens EN0454 it was > 120 µM; in the assay on P. aeruginosa EN004, > 120 µM; in the assay on P. aeruginosa EN0459, > 120 µM; in the assay on P. mirabilis EN0457, > 120 µM; in the assay with P. aeruginosa EN015 (P. aeruginosa EN015, Combination 2, read-out: MIC, thymidine concentration), 60 µM. The MIC is > 120 µM in the assay with A. baumannii EN007; 15 µM in the assay with K. pneumoniae EN006; 30 µM with P. aeruginosa EN005; 30 µM with E. coli EN001 (Escherichia coli, Combination 2, read-out: MIC, thymidine concentration); 60 µM in the assay with S. epidermidis EN0456; 4 µM in the assay with E. coli EN002. Moreover, the MIC in the assay on P. mirabilis ST19 EN0445 was > 120 µM; in the assay with Citrobacter sp. EN0465, > 120 µM; in [1], > 120 µM; with P. aeruginosa EN0460, > 120 µM; in the assay on K. oxytoca EN0392, 15 µM; with K. pneumoniae EN011 (K. pneumoniae EN011, Combination 2, read-out: MIC, thymidine concentration) it was 8 µM. Further, the MIC in the assay with E. aerogenes EN0461 was 60 µM; in the assay on E. coli B EN0458, < 0.2 µM; in the assay on E. coli EN012, < 0.2 µM; with P. aeruginosa EN0422, > 120 µM; with E. coli EN013 (E. coli EN013, Combination 2, read-out: MIC, thymidine concentration), < 0.2 µM; with K. pneumoniae EN010, 30 µM. Besides, the MIC in the assay on S. aureus EN008 is > 120 µM; with A. baumannii EN016, > 120 µM; with P. aeruginosa EN014, > 120 µM; in the assay on K. pneumoniae EN0463, 8 µM; in the assay with A. baumannii EN017 it was 30 µM; in the assay on S. typhimurium EN0466, 15 µM. The MIC with M. luteus EN0455 is > 120 µM.
